Measurements reported in the PolyMetriX glass transition set.
± gives the standard deviation of the reports.

| glass transition temperature | Compound |
| --- | --- |
| 396.00 °C | *Oc1ccc(C2(c3ccc(Oc4ccc5c(=O)n6c7cc(Oc8ccc9c(c8)nc8c%10ccc(*)c%11cccc(c(=O)n98)c%11%10)ccc7nc6c6cccc4c56)cc3)c3ccccc3-c3ccccc32)cc1 (repeat unit) |
| -41.00 °C | *C/C=C/COC(=O)CCCCCCCCC(=O)O* (repeat unit) |
| 33.00 °C | *CC(O)COC(=O)CCCCC(=O)OCC(O)COc1ccc(/C=C(\C)c2ccc(O*)cc2)cc1 (repeat unit) |
| 203.50 °C | *NNC(=O)c1ccc(C(*)=O)cc1OCCCCCCCC (repeat unit) |
| 250.00 °C | *c1cc(*)cc(-c2nc3ccccc3o2)c1 (repeat unit) |
| 87.50 °C | *CCCCCCCCCCCCN1C(=O)c2ccc(C(=O)c3ccc4c(c3)C(=O)N(*)C4=O)cc2C1=O (repeat unit) |
| 159.00 °C | *c1ccc2c(c1)C(=O)N(c1cccc(C(F)(F)C(F)(F)C(F)(F)c3cccc(N4C(=O)c5ccc(C(F)(F)C(F)(F)C(F)(F)C(*)(F)F)cc5C4=O)c3)c1)C2=O (repeat unit) |
| 244.00 °C | *C(=O)c1cccc(C(=O)c2ccc3c(c2)C(=O)N(c2ccc(Oc4ccc(N5C(=O)c6ccc(*)cc6C5=O)cc4)cc2)C3=O)c1 (repeat unit) |
| 155.00 °C | *c1ccc2c(c1)C(CCCCCC)(CCCCCC)c1cc(-c3ccc4c(c3)c3cc(*)ccc3n4-c3ccc(C)cc3)ccc1-2 (repeat unit) |
| 220.00 °C | */C(=C/c1ccc(/C=C(\c2ccccc2)c2ccc(-c3ccc(*)cc3)cc2)cc1)c1ccccc1 (repeat unit) |
| 61.00 °C | *CCCCCCCCCCC(=O)Oc1ccc(-c2ccc(OC(=O)c3ccc4c(c3)C(=O)N(*)C4=O)cc2)cc1 (repeat unit) |
| 129.00 °C | *Cc1ccc(C(C)c2ccc(CN3C(=O)c4ccc(Oc5ccc6c(c5)C(=O)N(*)C6=O)cc4C3=O)o2)o1 (repeat unit) |
| 135.00 °C | *CCCCCCNC(=O)c1cc(NC(=O)C(C(C)CC)N2C(=O)c3ccccc3C2=O)cc(C(=O)N*)c1 (repeat unit) |
| -57 ± 6.6 °C | *CCCCCCCCCCOC(=O)CCCCC(=O)O* (repeat unit) [Poly(decamethylene adipate) ] |

More lines, now with the values behind:

| Compound | glass transition temperature |
| --- | --- |
| *c1ccc(Oc2ccc(S(=O)(=O)c3ccc(Oc4ccc(-c5c6c(c(*)c7ccccc57)C(=O)N(CCCCCCCCCCCC)C6=O)cc4)cc3)cc2)cc1 (repeat unit) | 167.00 °C |
| *CC(COc1ccc(C(C)(C)c2ccc(O*)cc2)cc1)OC(=O)CC (repeat unit) | 60.00 °C |
| *CCOC(=O)C1=CCCCC(N2CCCC2)=C1C(=O)O* (repeat unit) | 352.50 °C |
| *C(=O)c1ccc(Oc2ccc(C3(c4ccc(Oc5ccc(C(=O)c6ccc7c(c6)C(=O)N(c6ccc(Cc8ccc(N9C(=O)c%10ccc(*)cc%10C9=O)cc8)cc6)C7=O)cc5)cc4)OC(=O)c4ccccc43)cc2)cc1 (repeat unit) | 268.00 °C |
| *CCCCCOc1ccc(CCc2ccc(O*)cc2C)cc1 (repeat unit) | 15.40 °C |
| *CC(*)C(=O)c1ccc(Cl)cc1 (repeat unit) | 63.00 °C |
| *C(=O)c1ccc2c(c1)C(=O)N(c1ccc(-c3ccccc3N3C(=O)c4ccc(*)cc4C3=O)cc1)C2=O (repeat unit) | 305.00 °C |
| *CCOC(=O)C1CCC(C(=O)O*)CC1 (repeat unit) | 25.00 °C |
| *c1cc(CCCCCC)c(*)s1 (repeat unit) | 15.2 ± 7.3 °C |
| *Oc1ccc(P(=O)(c2ccccc2)c2ccc(Oc3ccc(-c4ccc(*)cc4)cc3)cc2)cc1 (repeat unit) | 234.00 °C |
| *CCN(CCOC(=O)Nc1ccc(C)c(NC(=O)O*)c1)c1ccc(/N=N/c2ccc(-c3nc4ccccc4o3)cc2)cc1 (repeat unit) | 152.00 °C |
| *C(=O)OCC(C)(C)COC(=O)N1CCN(*)CC1 (repeat unit) | 70.00 °C |
| *Oc1ccc(S(=O)(=O)c2ccc(Oc3ccc(/C=N/c4ccc(Oc5ccc(-c6ccc(Oc7ccc(/N=C/c8ccc(*)cc8)cc7)cc6)cc5)cc4)cc3)cc2)cc1 (repeat unit) | 127.00 °C |
| *Oc1ccc(OC(=O)c2cccc(Sc3ccc(OC(=O)c4ccc(C(=O)Oc5ccc(Sc6cccc(C(*)=O)c6)cc5)cc4)cc3)c2)cc1C (repeat unit) | 106.50 °C |
| *CC(=O)NCCCCCCNC(=O)COC(=O)CCCCCCCCCCC(=O)O* (repeat unit) | 0.90 °C |
| *C1C(*)C2CC1C(C(=O)OCCc1ccccc1)C2C(=O)OCCc1ccccc1 (repeat unit) | 254.00 °C |
| *c1ccc(C2(c3ccc(-c4cc(-c5ccccc5)c5cc(Oc6ccc7nc(*)cc(-c8ccccc8)c7c6)ccc5n4)cc3)c3ccccc3C(=O)c3ccccc32)cc1 (repeat unit) | 340.00 °C |
| *Oc1ccc(S(=O)(=O)c2ccc(Oc3c(C)cc(-c4cc(C)c(*)c(C)c4Br)c(Br)c3C)cc2)cc1 (repeat unit) | 298.20 °C |
| *Oc1ccc(C2(c3ccc(OC(=O)CCC(*)=O)cc3)c3cc(OC)ccc3-c3ccc([N+](=O)[O-])cc32)cc1 (repeat unit) | 230.00 °C |
| *CC(*)c1ccc(C(O)CCN(C)C)cc1 (repeat unit) | 43.00 °C |
| *CC(*)(C)c1ccc(C(C)C)cc1 (repeat unit) | 140.00 °C |
| *C(=O)c1ccc2c(c1)C(=O)N(c1c(C)cc(C(c3cc(C(F)(F)F)cc(C(F)(F)F)c3)c3cc(C)c(N4C(=O)c5ccc(*)cc5C4=O)c(C)c3)cc1C)C2=O (repeat unit) | 301.10 °C |
| *OCCCCOC1COC2C(OC(=O)CCCCC(=O)OC3COC4C(*)COC34)COC12 (repeat unit) | 114.00 °C |
| *Oc1ccc(C(=O)Nc2ccc(Cc3ccc(NC(=O)c4ccc(Oc5nc(*)nc(Sc6ccccc6)n5)cc4)cc3)cc2)cc1 (repeat unit) | 302.00 °C |
| *CC(*)(C)C(=O)OC1CCC2CCCCC2C1 (repeat unit) | 145.00 °C |
| *c1cccc(OP(=O)(Oc2cccc(-n3c(=O)c4cc5c(=O)n(*)c(=O)c5cc4c3=O)c2)c2ccccc2)c1 (repeat unit) | 191.00 °C |
| *c1ccc2oc(-c3ccc(C(c4ccccc4)(c4ccc(-c5nc6cc(C(*)(C(F)(F)F)C(F)(F)F)ccc6o5)cc4)C(F)(F)F)cc3)nc2c1 (repeat unit) | 310.00 °C |
| *CC(*)(C)C(=O)OCCCCCCOc1ccc(C(=O)Oc2ccc(C#N)cc2)cc1 (repeat unit) | 43.00 °C |
| *c1c(C)cc(-c2cc(C)c(-n3c(=O)c4cc5c(=O)n(*)c(=O)c5cc4c3=O)c(C)c2)cc1C (repeat unit) | 340.00 °C |
| *Oc1ccc(S(=O)(=O)c2ccc(Oc3c(C)cc(C(c4cc(C)c(*)c(C)c4)(C(F)(F)F)C(F)(F)F)cc3C)cc2C(O)(C(F)(F)F)C(F)(F)F)c(C(O)(C(F)(F)F)C(F)(F)F)c1 (repeat unit) | 196.00 °C |
